Patent US20240156825A1, “USE OF SELECTIVE VEGFR2 AND FGFR1 INHIBITORS” (Fountain Therapeutics Inc., priority 2022, published 2024)
pIC50: −log10 of the molar value. Where two headings read alike, the source gives them in different places.

What was measured:
VEGFR2 and FGFR1 = experiment: Selection of compounds that selectively inhibit both VEGFR2 and FGFR1 (average relative IC50); format: biochemical; settings: average of VEGFR2 and FGFR1 relative IC50
VEGFR2 [1] = molecular target: T1, VEGFR2 (Homo sapiens, UniProt P35968); settings: relative IC50: reported IC50 toward VEGFR2 divided by next lowest reported IC50 to any gene target
T1 sequence (P35968 20-1356, species assumed): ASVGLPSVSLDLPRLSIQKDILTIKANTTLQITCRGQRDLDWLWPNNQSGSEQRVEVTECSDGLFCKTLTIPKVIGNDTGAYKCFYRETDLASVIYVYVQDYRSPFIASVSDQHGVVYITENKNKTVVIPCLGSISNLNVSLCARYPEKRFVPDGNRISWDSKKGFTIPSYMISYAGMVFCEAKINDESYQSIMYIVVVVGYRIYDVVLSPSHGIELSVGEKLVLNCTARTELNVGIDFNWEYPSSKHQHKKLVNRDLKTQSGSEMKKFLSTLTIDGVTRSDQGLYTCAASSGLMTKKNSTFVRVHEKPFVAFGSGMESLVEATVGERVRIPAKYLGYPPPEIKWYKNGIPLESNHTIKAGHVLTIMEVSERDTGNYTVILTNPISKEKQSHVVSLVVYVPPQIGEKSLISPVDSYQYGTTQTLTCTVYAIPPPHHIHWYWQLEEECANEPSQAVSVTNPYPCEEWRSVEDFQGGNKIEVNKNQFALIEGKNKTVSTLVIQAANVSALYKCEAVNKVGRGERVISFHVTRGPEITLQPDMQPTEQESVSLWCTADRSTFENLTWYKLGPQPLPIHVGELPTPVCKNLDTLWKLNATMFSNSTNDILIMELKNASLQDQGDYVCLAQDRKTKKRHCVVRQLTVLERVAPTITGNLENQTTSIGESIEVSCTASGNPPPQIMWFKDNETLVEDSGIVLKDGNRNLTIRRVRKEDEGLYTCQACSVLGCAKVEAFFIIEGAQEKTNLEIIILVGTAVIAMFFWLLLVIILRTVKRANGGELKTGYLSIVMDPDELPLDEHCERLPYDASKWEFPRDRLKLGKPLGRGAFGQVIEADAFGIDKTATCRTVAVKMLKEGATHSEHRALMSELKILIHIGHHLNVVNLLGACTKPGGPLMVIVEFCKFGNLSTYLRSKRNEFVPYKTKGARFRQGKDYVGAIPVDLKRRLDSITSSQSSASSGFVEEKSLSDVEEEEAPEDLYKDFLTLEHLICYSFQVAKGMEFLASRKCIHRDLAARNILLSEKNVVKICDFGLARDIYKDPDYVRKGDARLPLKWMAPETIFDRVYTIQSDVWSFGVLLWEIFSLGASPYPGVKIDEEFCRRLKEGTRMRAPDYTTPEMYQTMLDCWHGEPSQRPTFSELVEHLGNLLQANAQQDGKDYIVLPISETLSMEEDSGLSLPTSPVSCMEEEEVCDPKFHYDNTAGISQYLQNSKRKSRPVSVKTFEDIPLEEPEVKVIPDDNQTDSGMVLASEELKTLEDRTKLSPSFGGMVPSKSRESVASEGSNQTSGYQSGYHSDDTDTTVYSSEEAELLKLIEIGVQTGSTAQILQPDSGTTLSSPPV

FGFR1 = FGFR1 (Homo sapiens, UniProt P11362); settings: relative IC50: reported IC50 toward FGFR1 divided by next lowest reported IC50 to any gene target
FGFR1, sequence (P11362 22-822, species assumed): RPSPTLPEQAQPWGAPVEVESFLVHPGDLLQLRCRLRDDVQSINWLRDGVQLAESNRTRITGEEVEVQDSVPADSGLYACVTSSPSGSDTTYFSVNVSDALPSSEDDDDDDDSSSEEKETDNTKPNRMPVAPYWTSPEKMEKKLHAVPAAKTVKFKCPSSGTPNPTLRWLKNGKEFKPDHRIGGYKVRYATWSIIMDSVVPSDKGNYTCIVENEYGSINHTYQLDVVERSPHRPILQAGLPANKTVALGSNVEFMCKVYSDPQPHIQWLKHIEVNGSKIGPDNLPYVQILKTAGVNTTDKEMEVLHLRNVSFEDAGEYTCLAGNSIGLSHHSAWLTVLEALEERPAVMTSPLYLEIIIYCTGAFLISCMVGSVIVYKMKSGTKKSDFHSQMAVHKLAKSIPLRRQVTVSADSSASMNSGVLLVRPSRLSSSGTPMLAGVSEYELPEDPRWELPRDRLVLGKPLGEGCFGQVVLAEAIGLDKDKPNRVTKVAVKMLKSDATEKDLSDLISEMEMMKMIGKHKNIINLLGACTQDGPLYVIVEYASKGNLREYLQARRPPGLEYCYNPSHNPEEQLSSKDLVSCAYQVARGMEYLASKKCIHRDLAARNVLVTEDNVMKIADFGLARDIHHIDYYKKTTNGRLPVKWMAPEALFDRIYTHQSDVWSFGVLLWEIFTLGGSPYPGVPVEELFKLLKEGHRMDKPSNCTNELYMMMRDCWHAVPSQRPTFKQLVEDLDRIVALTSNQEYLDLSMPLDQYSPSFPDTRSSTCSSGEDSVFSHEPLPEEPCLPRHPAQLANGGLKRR

VEGFR2 [2] = molecular target: T1, VEGFR2
any gene target = settings: cited from earlier work
[3] = reported IC50 to VEGFR2; Table 3, selective inhibitors of VEGFR2; read-out: VEGFR2 IC50_μM; cited from earlier work
[4] = lowest reported IC50 to any gene target, read-out: min IC50
[5] = next lowest IC50 value to any gene target, Table 3, read-out: Min IC50_μM
[6] = reported IC50 to VEGFR2; read-out: VEGFR2 IC50_μM; cited from earlier work
[7] = next lowest IC50 value to any gene target, read-out: Min IC50_μM

Compound	avg rIC50 (VEGFR2 and FGFR1)	VEGFR2, rIC50 (VEGFR2 [1])	FGFR1, rIC50 (FGFR1)	pIC50 (VEGFR2 [2]; [3])	pIC50 (any gene target; [4])	pIC50 (any gene target; [5])	pIC50 (VEGFR2 [2]; [6])	pIC50 (any gene target; [7])	pIC50 (VEGFR2 [2]; read-out: VEGFR2 IC50_μM; reported IC50 to VEGFR2; Table 3, selective inhibitors of VEGFR2; cited from earlier work)
CONC(=O)c1cc(Nc2ncnn3cc(-c4nnc(CC(F)(F)F)o4)c(C(C)C)c23)c(F)cc1F [compound 11455031, 2,4-Difluoro-5-{5-isopropyl-6-[5-(2,2,2-trifluoro-ethyl)-[1,3,4]oxadiazol-2-yl]-pyrrolo[2,1-f][1,2,4]triazin-4-ylamino}-N-methoxy-benzamide, reference compound]	1.4	1.0	1.8	7.60	7.60	7.60	–	–	–
CONC(=O)c1cc(Nc2ncnn3cc(-c4nnc(CS(C)(=O)=O)o4)c(C(C)C)c23)c(F)cc1F [compound 10436729, 2,4-Difluoro-5-[5-isopropyl-6-(5-methanesulfonylmethyl-[1,3,4]oxadiazol-2-yl)-pyrrolo[2,1-f][1,2,4]triazin-4-ylamino]-N-methoxy-benzamide, reference compound]	1.6	1.0	2.2	8.68	8.70	8.68	–	–	–
CONC(=O)c1cc(Nc2ncnn3cc(-c4nnc(N(C)C)o4)c(C(C)C)c23)c(F)cc1F [compound 9982235, 5-[6-(5-Dimethylamino-[1,3,4]oxadiazol-2-yl)-5-isopropyl-pyrrolo[2,1-f][1,2,4]triazin-4-ylamino]-2,4-difluoro-N-methoxy-benzamide, reference compound]	1.0	1.0	1.1	8.17	8.15	8.17	–	–	–
CCc1nnc(-c2cn3ncnc(Nc4cc(C(=O)NOC)c(F)cc4F)c3c2C(C)C)o1 [compound 11374515, 5-[6-(5-Ethyl-[1,3,4]oxadiazol-2-yl)-5-isopropyl-pyrrolo[2,1-f][1,2,4]triazin-4-ylamino]-2,4-difluoro-N-methoxy-benzamide, reference compound]	1.8	1.0	2.6	8.74	8.70	8.74	–	–	–
COC(=O)c1ccc2c(C(=Nc3ccc(-n4c(C)ccc4CN4CCN(C)CC4)cc3)c3ccccc3)c(O)[nH]c2c1 [compound 141475848, Methyl 2-hydroxy-3-[N-[4-[2-methyl-5-[(4-methylpiperazin-1-yl)methyl]pyrrol-1-yl]phenyl]-C-phenylcarbonimidoyl]-1H-indole-6-carboxylate, reference compound]	2.1	0.7	3.5	–	8.15	–	8.19	8.00	–
CONC(=O)c1cc(Nc2ncnn3cc(-c4nnc(CC(C)C)o4)c(C(C)C)c23)c(F)cc1F [compound 11352215, 2,4-Difluoro-5-[6-(5-isobutyl-[1,3,4]oxadiazol-2-yl)-5-isopropyl-pyrrolo[2,1-f][1,2,4]triazin-4-ylamino]-N-methoxy-benzamide, reference compound]	2.1	1.0	3.1	–	8.70	8.68	–	–	8.68
COc1cc2c(Nc3ccc(C#N)cc3F)ncnc2cc1OCCn1ccnn1 [compound 5329034, Anilinoquinazoline deriv. 36, reference compound]	5.3	0.5	10.0	–	6.52	–	6.52	6.22	–
